# Experimental data: ChEMBL document CHEMBL5576054, “Lead compound profiling for small molecule inhibitors of the REV1-CT/RIR Translesion synthesis Protein-Protein interaction” (Bioorg Med Chem, 2024)
# Activity calls are given as the source filed them. The calls are words filed in the database; no cut-off is given here.
# Legend:
# [1] = Disruption of C-terminal REV-1/FAM-tagged Pol kappa RIR (unknown origin) interaction incubated for 1 hr by FP assay; design: species or system Homo sapiens
# [2] = Solubility of compound in PBS at pH 4; format: physicochemical; conditions: buffer
# [3] = Solubility of compound in PBS at pH 7.4; format: physicochemical
# [4] = Metabolic stability in human liver microsomes assessed as half life at 1 uM incubated upto 60 mins by LC-MS/MS analysis; format: ADME, Microsome; conditions: 1 h
# [5] = Metabolic stability in human liver microsomes assessed as intrinsic clearance at 1 uM incubated upto 60 mins by LC-MS/MS analysis; format: ADME, Microsome; conditions: 1 h
# [6] = target: T1, DNA repair protein REV1 (Homo sapiens) (UniProt Q9UBZ9); test: Binding affinity to C-terminal human REV-1 incubated for 30 mins by MST assay
# T1 sequence (whole entry): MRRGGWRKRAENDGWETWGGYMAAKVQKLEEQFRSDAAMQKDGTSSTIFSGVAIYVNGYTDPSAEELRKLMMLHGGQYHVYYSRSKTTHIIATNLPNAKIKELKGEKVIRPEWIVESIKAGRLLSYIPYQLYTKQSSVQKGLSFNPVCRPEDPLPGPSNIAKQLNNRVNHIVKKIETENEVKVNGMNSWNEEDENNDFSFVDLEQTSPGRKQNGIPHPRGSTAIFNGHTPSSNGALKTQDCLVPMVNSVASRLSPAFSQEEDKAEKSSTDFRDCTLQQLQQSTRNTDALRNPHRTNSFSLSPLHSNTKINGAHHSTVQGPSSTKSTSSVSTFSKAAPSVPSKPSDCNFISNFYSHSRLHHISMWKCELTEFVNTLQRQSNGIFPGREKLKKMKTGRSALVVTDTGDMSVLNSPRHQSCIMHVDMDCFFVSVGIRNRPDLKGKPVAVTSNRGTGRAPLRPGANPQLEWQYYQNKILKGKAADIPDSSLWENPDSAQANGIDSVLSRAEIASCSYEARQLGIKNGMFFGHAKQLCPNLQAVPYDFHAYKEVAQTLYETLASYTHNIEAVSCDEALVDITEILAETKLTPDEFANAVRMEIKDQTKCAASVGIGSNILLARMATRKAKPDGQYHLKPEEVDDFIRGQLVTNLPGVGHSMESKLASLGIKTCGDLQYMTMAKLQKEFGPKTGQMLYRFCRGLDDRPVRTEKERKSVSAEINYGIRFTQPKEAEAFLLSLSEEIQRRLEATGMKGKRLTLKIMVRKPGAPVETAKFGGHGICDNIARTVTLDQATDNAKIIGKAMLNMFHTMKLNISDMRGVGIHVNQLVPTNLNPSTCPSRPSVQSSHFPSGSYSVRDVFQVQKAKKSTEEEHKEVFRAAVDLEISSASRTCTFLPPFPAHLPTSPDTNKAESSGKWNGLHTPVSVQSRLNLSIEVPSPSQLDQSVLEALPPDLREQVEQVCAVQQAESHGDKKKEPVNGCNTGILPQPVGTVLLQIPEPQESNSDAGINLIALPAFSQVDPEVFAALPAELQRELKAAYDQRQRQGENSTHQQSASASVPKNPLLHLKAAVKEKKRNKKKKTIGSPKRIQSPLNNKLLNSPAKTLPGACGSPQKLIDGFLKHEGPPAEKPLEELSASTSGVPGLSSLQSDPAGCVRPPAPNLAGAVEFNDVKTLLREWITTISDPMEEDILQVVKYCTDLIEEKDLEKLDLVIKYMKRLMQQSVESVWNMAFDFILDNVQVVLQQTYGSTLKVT
# [7] = test system: A549; test: Inhibition of cologenic survival in human A549 cells incubated for 8 to 10 days by crystal violet staining based analysis; format: functional, cell-based; conditions: time 8-10 day
# [8] = target: T2, DNA repair protein REV1 (Homo sapiens, UniProt Q9UBZ9); test: Binding affinity to C-terminal human REV-1 assessed as dissociation constant incubated for 30 mins by MST assay
# T2 sequence (Q9UBZ9 whole entry): T1 sequence (whole entry)
structure (smiles),measurement,setting,value
CCCc1cc(C(=O)OCC)c(NC(=O)C2CCCN(C(=O)OC(C)(C)C)C2)s1 (stereo unspecified),IC50,[1],2.5 µM
Cc1ccc(C(=O)N2CCN(c3ccccc3)CC2)cc1S(=O)(=O)N1CCOCC1,solubility,[2],13.9 µM
same,solubility,[3],14.1 µM
same,t1/2,[4],6.6 min
same,intrinsic clearance (CLint),[5],210 µL/min/mg
CCCc1cc(C(=O)OCC)c(NC(=O)C2CCNCC2)s1,IC50,[1],3.8 µM
CC(=O)N1CCC(C(=O)NCc2cccs2)CC1,IC50,[1],16.4 µM
CCCc1cc(C(=O)OCC)c(NC(=O)C2CCN(C(=O)OC(C)(C)C)CC2)s1,IC50,[1],2.3 µM
Cc1cccn2c(=O)c3cc(C(=O)N[C@@H](C)c4ccccc4)c(N)[n+](CCOCCO)c3nc12,IC50,[1],1.6 µM
same,Activity,[6],inactive
same,solubility,[2],302 µM
same,solubility,[3],51.7 µM
same,t1/2,[4],97.6 min
same,intrinsic clearance (CLint),[5],14.2 µL/min/mg
CCCCc1ccc(-n2nnc(C(=O)N(C)C3CCS(=O)(=O)C3)c2C)cc1 (stereo unspecified),solubility,[2],11.7 µM
same,solubility,[3],10 µM
same,t1/2,[4],49.9 min
same,intrinsic clearance (CLint),[5],27.8 µL/min/mg
COC(=O)c1ccsc1NC(=O)C1CCN(C(C)=O)CC1,IC50,[1],> 100 µM
Cc1ccc(/N=N/c2ccc(N)nc2N)cc1C,inhibition,[7],Active
COc1ccc(OC)c(-c2csc(N3CCN(C(=O)c4ccco4)CC3)n2)c1,IC50,[1],6.2 µM
same,Kd,[8],> 200 µM
same,solubility,[2],1.3 µM
same,solubility,[3],0.7 µM
same,t1/2,[4],23.6 min
same,intrinsic clearance (CLint),[5],58.8 µL/min/mg
C=CCOc1cc(OCC=C)cc(C(=O)Nc2sc(CCC)cc2C(=O)OCC)c1,IC50,[1],49.7 µM
CCCc1cc(C(=O)OCC)c(NC(=O)c2cc(O)cc(O)c2)s1,IC50,[1],> 100 µM
CCCc1cc(C(=O)OCC)c(NC(=O)c2ccccc2O)s1,IC50,[1],16.7 µM
CC(=O)N1CCC(C(=O)NCCc2cccs2)CC1,IC50,[1],> 100 µM
CCCc1cc(C(=O)OCC)c(NC(=O)C2CCCNC2)s1 (stereo unspecified),IC50,[1],1.2 µM
